From ChEMBL document CHEMBL3272135, “Quantitative relationships between steroid structure and binding to putative progesterone receptors” (J Med Chem, 1977)

Columns and labels:
Cavia porcellus = organism: Cavia porcellus; experiment: Relative binding affinity to guinea pig progesterone receptor
[1] = biological target: T1, Progesterone receptor (Ovis aries) (UniProt Q28590); experiment: Relative binding affinity to sheep progesterone receptor
T1 sequence (whole entry): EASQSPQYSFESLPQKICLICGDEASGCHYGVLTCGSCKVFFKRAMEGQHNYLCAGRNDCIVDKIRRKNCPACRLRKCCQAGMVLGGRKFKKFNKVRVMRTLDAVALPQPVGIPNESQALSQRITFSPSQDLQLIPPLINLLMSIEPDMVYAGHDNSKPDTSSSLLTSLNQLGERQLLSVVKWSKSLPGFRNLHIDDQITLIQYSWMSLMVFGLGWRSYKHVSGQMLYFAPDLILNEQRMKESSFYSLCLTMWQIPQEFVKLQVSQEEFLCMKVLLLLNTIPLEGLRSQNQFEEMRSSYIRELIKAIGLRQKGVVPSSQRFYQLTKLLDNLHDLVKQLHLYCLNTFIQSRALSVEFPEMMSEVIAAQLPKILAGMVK

[2] = biological target: T2, Progesterone receptor (Oryctolagus cuniculus) (UniProt P06186); experiment: Relative binding affinity to rabbit progesterone receptor
T2 sequence (whole entry): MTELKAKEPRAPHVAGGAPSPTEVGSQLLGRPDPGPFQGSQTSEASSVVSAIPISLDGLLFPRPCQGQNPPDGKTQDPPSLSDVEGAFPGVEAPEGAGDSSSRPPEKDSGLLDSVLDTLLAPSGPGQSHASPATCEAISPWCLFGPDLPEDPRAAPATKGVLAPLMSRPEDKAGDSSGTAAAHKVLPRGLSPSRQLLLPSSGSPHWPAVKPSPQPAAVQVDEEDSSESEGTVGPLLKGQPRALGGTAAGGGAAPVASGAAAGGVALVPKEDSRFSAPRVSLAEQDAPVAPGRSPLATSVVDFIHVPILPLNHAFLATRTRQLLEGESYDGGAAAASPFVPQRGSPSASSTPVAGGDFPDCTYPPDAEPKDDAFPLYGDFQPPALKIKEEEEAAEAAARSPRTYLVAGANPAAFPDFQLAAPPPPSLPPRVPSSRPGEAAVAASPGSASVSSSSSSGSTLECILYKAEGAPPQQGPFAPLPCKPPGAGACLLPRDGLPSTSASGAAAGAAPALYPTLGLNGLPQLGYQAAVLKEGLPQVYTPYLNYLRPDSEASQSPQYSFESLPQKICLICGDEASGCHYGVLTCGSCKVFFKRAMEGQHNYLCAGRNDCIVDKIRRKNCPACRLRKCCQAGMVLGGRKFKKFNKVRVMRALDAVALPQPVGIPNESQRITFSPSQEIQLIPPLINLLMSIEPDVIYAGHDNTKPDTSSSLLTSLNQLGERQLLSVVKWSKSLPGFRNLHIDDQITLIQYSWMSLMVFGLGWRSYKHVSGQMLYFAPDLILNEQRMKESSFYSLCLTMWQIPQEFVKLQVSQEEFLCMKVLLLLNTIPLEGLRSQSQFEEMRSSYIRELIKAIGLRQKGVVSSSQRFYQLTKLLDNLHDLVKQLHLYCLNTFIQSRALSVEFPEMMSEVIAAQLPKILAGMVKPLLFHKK

[3] = biological target: T3, Progesterone receptor (Homo sapiens) (UniProt P06401)
T3 sequence (whole entry): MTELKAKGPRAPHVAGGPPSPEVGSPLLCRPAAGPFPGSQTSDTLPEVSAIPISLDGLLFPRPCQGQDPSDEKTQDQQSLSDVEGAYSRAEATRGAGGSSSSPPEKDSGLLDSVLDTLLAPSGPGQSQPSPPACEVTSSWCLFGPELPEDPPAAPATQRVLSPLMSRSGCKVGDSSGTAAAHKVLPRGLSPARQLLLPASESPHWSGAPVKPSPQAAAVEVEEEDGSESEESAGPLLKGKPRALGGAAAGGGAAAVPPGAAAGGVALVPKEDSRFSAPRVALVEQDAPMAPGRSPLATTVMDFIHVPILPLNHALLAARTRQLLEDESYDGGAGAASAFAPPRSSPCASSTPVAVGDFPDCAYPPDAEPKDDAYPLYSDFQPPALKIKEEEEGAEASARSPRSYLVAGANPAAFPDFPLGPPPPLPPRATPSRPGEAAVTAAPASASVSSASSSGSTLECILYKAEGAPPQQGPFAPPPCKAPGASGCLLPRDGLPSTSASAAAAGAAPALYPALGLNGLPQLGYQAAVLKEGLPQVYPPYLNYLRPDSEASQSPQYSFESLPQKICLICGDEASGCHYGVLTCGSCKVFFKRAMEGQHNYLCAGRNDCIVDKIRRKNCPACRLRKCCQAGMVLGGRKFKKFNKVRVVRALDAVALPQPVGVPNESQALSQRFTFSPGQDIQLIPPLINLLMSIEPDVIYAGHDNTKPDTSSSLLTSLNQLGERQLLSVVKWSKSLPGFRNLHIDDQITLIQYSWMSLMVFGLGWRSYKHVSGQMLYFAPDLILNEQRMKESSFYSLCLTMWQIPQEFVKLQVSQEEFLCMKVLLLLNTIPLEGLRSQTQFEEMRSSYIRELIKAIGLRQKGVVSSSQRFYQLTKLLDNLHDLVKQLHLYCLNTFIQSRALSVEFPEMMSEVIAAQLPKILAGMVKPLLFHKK

Structure (SMILES)	log(RBA) (Cavia porcellus)	log(RBA) [1]	log(RBA) [2]	log(RBA) [3]
CC(=O)[C@H]1CC[C@H]2[C@@H]3CCC4=CC(=O)CC[C@]4(C)[C@H]3CC[C@]12C	2	2	2	2
C[C@]12CC[C@H]3[C@@H](CCC4=CC(=O)CC[C@@H]43)[C@@H]1CC[C@@H]2O	1.6	1	1	1.14
C[C@]1(O)CC[C@H]2[C@@H]3CCC4=CCCC[C@@H]4[C@H]3CC[C@@]21C	0.3	0.778	1.3	0.78
CC(=O)[C@H]1CC[C@H]2[C@@H]3CCC4=CC(=O)C=C[C@]4(C)[C@H]3CC[C@]12C	1.64	1.2	1.3	1.48
CC(=O)[C@H]1CC[C@H]2[C@@H]3CCC4=CC(=O)CC[C@]4(CO)[C@H]3CC[C@]12C	-0.22	-0.52	-0.301	-0.52
CC[C@@H]1C[C@H]2[C@@H]3CCC4=CC(=O)CC[C@@H]4[C@H]3CC[C@]2(C)[C@H]1C(=O)CO	1.4	1.98	2.44	2.16
C[C@H](O)[C@H]1CC[C@H]2[C@@H]3CCC4=CC(=O)CC[C@]4(C)[C@H]3CC[C@]12C	0.6	0.7	0.778	1
CC(=O)O[C@]1(C(C)=O)CC[C@H]2[C@@H]3C[C@H](C)C4=CC(=O)CC[C@]4(C)[C@H]3CC[C@@]21C	1.11	1.86	2	2.29
C#C[C@]1(O)CC[C@H]2[C@@H]3CC[C@H]4C[C@H](O)CC[C@@H]4[C@H]3CC[C@@]21C	-2	-1.52	-1	-1
CC(=O)[C@@]1(O)CC[C@H]2[C@@H]3CCC4=CC(=O)CC[C@]4(C)[C@H]3CC[C@@]21C	-0.52	-0.3	-0.097	-0.15
CC[C@]12CC[C@H]3[C@@H](CCC4=CC(=O)CC[C@@]43C)[C@@H]1CC[C@@H]2C(C)=O	1.63	1.04	1.5	1.43
C[C@]12CCC(=O)C=C1CC[C@@H]1[C@@H]2[C@@H](O)C[C@@]2(C)[C@H]1CC[C@]2(O)C(=O)CO	-1	-1.3	-1	-1
CC(=O)[C@H]1CC[C@H]2[C@@H]3CC[C@H]4CC(=O)CC[C@]4(C)[C@H]3CC[C@]12C	1.4	1.48	1.74	1.48
C[C@]12CCC(=O)C=C1CC[C@@H]1[C@@H]2CC[C@]2(C)C(=O)CC[C@@H]12	-0.7	-1	-1	-1
CC(=O)O[C@]1(C(C)=O)CC[C@H]2[C@@H]3C=C(Cl)C4=CC(=O)CC[C@]4(C)[C@H]3CC[C@@]21C	-0.097	1.78	2.16	2.08
CC(=O)[C@@]12O[C@@H]1C[C@H]1[C@@H]3CCC4=CC(=O)CC[C@]4(C)[C@H]3CC[C@@]12C	-0.046	-0.52	-0.097	0

Structure (SMILES)	log(RBA) (Cavia porcellus)	log(RBA) [1]	log(RBA) [2]	log(RBA) [3]
CC(=O)O[C@]1(C(C)=O)CC[C@H]2[C@@H]3CCC4=CC(=O)CC[C@]4(C)[C@H]3CC[C@@]21C	-0.7	1.6	1.72	1.83
C#C[C@]1(O)CC[C@H]2[C@@H]3CC[C@H]4C[C@@H](O)CC[C@@H]4[C@H]3CC[C@@]21C	-2	-1.3	-0.52	-0.7
C#C[C@]1(O)CC[C@H]2[C@@H]3CC=C4CCCC[C@@H]4[C@H]3CC[C@@]21C	-1.15	-0.7	-0.523	-1
C#C[C@]1(O)CC[C@H]2[C@@H]3[C@H](C)CC4=C(CCC(=O)C4)[C@H]3CC[C@@]21C	-0.4	0.7	0.903	0.78
C#C[C@]1(O)CC[C@H]2[C@@H]3CCC4=C[C@@H](O)CC[C@@H]4[C@H]3CC[C@@]21C	-0.22	1	1.3	1.4
C=CC[C@]1(O)CC[C@H]2[C@@H]3CCC4=CCCC[C@@H]4[C@H]3CC[C@@]21C	-0.7	0.6	1.08	0.48
CC(=O)[C@H]1CC[C@H]2[C@@H]3CCC4=CC(=O)CC[C@]4(C)[C@H]3CC(=O)[C@]12C	-0.52	-1	-0.221	-0.69
CC(=O)OCC(=O)[C@H]1CC[C@H]2[C@@H]3CCC4=CC(=O)CC[C@]4(C)[C@H]3CC[C@]12C	1.34	1	1.69	1
C#C[C@]1(OC(C)=O)CC[C@H]2[C@@H]3CCC4=CCCC[C@@H]4[C@H]3CC[C@@]21C	-2	-1	0	-0.7
CC(=O)[C@H]1CC[C@H]2[C@@H]3CCC4=CC(=O)CC[C@]4(C)[C@H]3[C@H](O)C[C@]12C	-0.097	-0.15	0.301	0.48
CC[C@@H]1C[C@H]2[C@@H]3CCC4=CC(=O)CC[C@@H]4[C@H]3CC[C@]2(C)[C@H]1C(=O)CF	1.6	2.08	2.36	2.23
CC[C@@H]1C[C@H]2[C@@H]3C=CC4=CC(=O)CC[C@@H]4[C@H]3CC[C@]2(C)[C@H]1C(=O)CF	1.17	2.13	2.24	2.15
C#C[C@]1(OC(C)=O)CC[C@H]2[C@@H]3CCC4=CC(=O)CC[C@@H]4[C@H]3CC[C@@]21C	0.78	1.04	2.05	1.32
C[C@]12C[C@H](O)[C@H]3[C@@H](CCC4=CC(=O)CC[C@@]43C)[C@@H]1CC[C@@H]2C(=O)CO	0.447	0	0.02	0.3
CC(=O)O[C@]1(C(C)=O)CC[C@H]2[C@@H]3CCC4=C(O)C(=O)CC[C@]4(C)[C@H]3CC[C@@]21C	-0.4	1.2	1.77	1.62
CC(=O)[C@H]1CC[C@H]2[C@@H]3CC[C@@H]4CC(=O)CC[C@]4(C)[C@H]3CC[C@]12C	0.7	0.6	1.08	1.08
